Test results as given in patent US6495591B1, “Fungal efflux pump inhibitors” (Essential Therapeutics, Inc., priority 1997, dated 2002).
≈ marks a conversion by molar mass, not a printed value. Read-outs that look alike come from different tables or passages of the source.

How the values were obtained:
Type in all cases: cell-based
[1] = system: C. albicans YEM-15 (CDR1 & CDR2 overexpressor); experiment: microbe, parasite or virus in culture; conditions: Candida albicans
[2] = system: C. glabrata YEM-17 (CgCDR overexpressor); experiment: microbe, parasite or virus in culture; conditions: Nakaseomyces glabratus
[3] = system: C. krusei YEM-71; experiment: Broth dilution checkerboard, azoles and terbinafine with milbemycin α9 (Table 8); conditions: Pichia kudriavzevii, YEM71, YEM-71, alone
[4] = system: YEM 13 C. albicans BEN up; experiment: microbe, parasite or virus in culture; conditions: YEM 13, 24 hrs, 80% inhibition; for MIC of compound in the presence of fluconazole (+): 1/8 × MIC of fluconazole
[5] = system: YEM 15 C. albicans, CDR1CDR2 up; experiment: microbe, parasite or virus in culture; conditions: YEM 15, 24 hrs, 80% inhibition; for MIC of compound in the presence of fluconazole (+): 1/8 × MIC of fluconazole
[6] = system: YEM 53 C. krusei; experiment: FEPI MIC with/without 1/8 fluconazole MIC at 24 hrs (Table 11)
[7] = system: YEM 17 C. glabrata, CgCDR up; conditions: 24 hrs, 80% inhibition; for MIC of compound in the presence of fluconazole (+): 1/8 × MIC of fluconazole
[8] = system: YEM 51 C. glabrata wt; experiment: FEPI MIC with/without 1/8 fluconazole MIC at 24 hrs (Table 11)
[9] = system: YEM 30 C. albicans wt; experiment: as above
[10] = system: YEM 24 C. albicans ΔCDR1, ΔCDR2; experiment: microbe, parasite or virus in culture; conditions: YEM 24, 24 hrs, 80% inhibition; for MIC of compound in the presence of fluconazole (+): 1/8 × MIC of fluconazole
[11] = system: YEM 27 C. albicans ΔCDR1ΔCDR2 ΔBENΔFLU1; experiment: microbe, parasite or virus in culture; conditions: YEM 27, 24 hrs, 80% inhibition; for MIC of compound in the presence of fluconazole (+): 1/8 × MIC of fluconazole
[12] = system: Aspergillus fumigatus; experiment: FEPI MICs in combination with 1/4 the azole's MIC (Table 12); set-up: FEPI MIC (alone): unit not given here; conditions: for FEPI MIC with itraconazole, 60% Inh / FEPI MIC with itraconazole, 80% Inh: itraconazole 0.063 μg/ml (1/4 MIC); for FEPI MIC with ketoconazole, 60% Inh / FEPI MIC with ketoconazole, 80% Inh: ketoconazole 4 μg/ml (1/4 MIC); for FEPI MIC (alone): no azole, 35° C., CM Broth
Protocol: The combinations were tested against a series of Candida strain with known expression of efflux pumps or with complete deletion of all known pumps and Aspergillus fumigatus. Results are reported as minimum inhibitory concentration (MIC) of […] in the presence or absence of […]. A total of 27 distinct milbemycins were studied.

[13] = YEM 53, 1/8 × MIC of fluconazole, 24 hrs, 80% inhibition
[14] = YEM 51, 1/8 × MIC of fluconazole, 24 hrs, 80% inhibition
[15] = YEM 30, 1/8 × MIC of fluconazole, 24 hrs, 80% inhibition
[16] = fluconazole 32 μg/ml (1/4 MIC), 60% inhibition
[17] = fluconazole 32 μg/ml (1/4 MIC), 80% inhibition

Molecule	MIC of compound in the presence of fluconazole (+) [4]	MIC of compound in the absence of fluconazole (−) [4]	MIC of compound in the presence of fluconazole (+) [5]	MIC of compound in the absence of fluconazole (−) [5]	MIC of compound in the presence of fluconazole (+) [6, 13]	MIC of compound in the absence of fluconazole (−) ([6]; YEM 53, 24 hrs, 80% inhibition)	MIC of compound in the presence of fluconazole (+) [7]	MIC of compound in the absence of fluconazole (−) [7]	MIC of compound in the presence of fluconazole (+) [8, 14]	MIC of compound in the absence of fluconazole (−) ([8]; YEM 51, 24 hrs, 80% inhibition)	MIC of compound in the absence of fluconazole (−) ([9]; YEM 30, 24 hrs, 80% inhibition)	MIC of compound in the presence of fluconazole (+) [10]	MIC of compound in the absence of fluconazole (−) [10]	MIC of compound in the presence of fluconazole (+) [11]	MIC of compound in the absence of fluconazole (−) [11]	FEPI MIC with itraconazole, 60% Inh ([12]; 60% inhibition)	FEPI MIC with itraconazole, 80% Inh ([12]; 80% inhibition)	FEPI MIC with ketoconazole, 60% Inh ([12]; 60% inhibition)	FEPI MIC with ketoconazole, 80% Inh ([12]; 80% inhibition)	FEPI MIC (alone) ([12]; 80% inhibition)	other results
CCC(C)n1ncn(-c2ccc(N3CCN(c4ccc(OCC5COC(Cn6cncn6)(c6ccc(Cl)cc6Cl)O5)cc4)CC3)cc2)c1=O (stereo not shown) [Itraconazole, itraconazole, reference compound]	–	–	–	–	–	–	–	–	–	–	–	–	–	–	–	–	–	–	–	–	MIC ([1]; read-out: Itraconazole MIC): 0.5 µg/mL (≈ 0.709 µM); MIC ([2]; read-out: Itraconazole MIC): 128 µg/mL (≈ 181 µM); MIC ([3]; read-out: Itraconazole MIC): 0.5 µg/mL
LL-F2849ζ (nemedectinζ) [Compound 17]	> 64 µg/mL	> 64 µg/mL	≦0.03	> 64 µg/mL	> 64 µg/mL	> 64 µg/mL	2 µg/mL	> 64 µg/mL	0.5 µg/mL	> 64 µg/mL	> 64 µg/mL	> 64 µg/mL	> 64 µg/mL	64 µg/mL	> 64 µg/mL	16	>64	4	4	>64	MIC of compound in the presence of fluconazole (+) [9, 15]: ≦0.03; FEPI MIC with fluconazole, 60% Inh [12, 16]: 64; FEPI MIC with fluconazole, 80% Inh [12, 17]: 64
CC[C@H](C)[C@H]1O[C@]2(CC[C@@H]1C)C[C@@H]1C[C@@H](C/C=C(\C)[C@@H](O[C@H]3C[C@H](OC)[C@@H](O[C@H]4C[C@H](OC)[C@@H](O)[C@H](C)O4)[C@H](C)O3)[C@@H](C)/C=C/C=C3\CO[C@@H]4[C@H](O)C(C)=C[C@@H](C(=O)O1)[C@]34O)O2 [Compound 1, Ivermectin B1a]	> 64 µg/mL	> 64 µg/mL	> 64 µg/mL	> 64 µg/mL	–	> 64 µg/mL	> 64 µg/mL	> 64 µg/mL	–	> 64 µg/mL	> 64 µg/mL	> 64 µg/mL	> 64 µg/mL	64 µg/mL	> 64 µg/mL	>64	>64	>64	>64	>64	MIC of compound in the presence of fluconazole (+) [6]: 8 µg/mL; MIC of compound in the presence of fluconazole (+) [8]: 64 µg/mL; MIC of compound in the presence of fluconazole (+) [9]: ≦0.03; FEPI MIC with fluconazole, 60% Inh [12]: >64; FEPI MIC with fluconazole, 80% Inh [12]: >64
CC(=O)N1CCN(c2ccc(OCC3COC(Cn4ccnc4)(c4ccc(Cl)cc4Cl)O3)cc2)CC1 (stereo not shown) [Ketoconazole, ketoconazole, reference compound]	–	–	–	–	–	–	–	–	–	–	–	–	–	–	–	–	–	–	–	–	MIC ([1]; read-out: Ketoconazole MIC): 1 µg/mL (≈ 1.88 µM); MIC ([2]; read-out: Ketoconazole MIC): 2 µg/mL (≈ 3.76 µM); MIC ([3]; read-out: Ketoconazole MIC): 2 µg/mL
CC1=C[C@H]2C(=O)O[C@H]3C[C@@H](C/C=C(\C)C[C@@H](C)/C=C/C=C4\CO[C@H]([C@@H]1O)[C@@]42O)O[C@@]1(CC[C@H](C)[C@@H](C(C)C)O1)C3 [Compound 12, Milbemycin D]	> 64 µg/mL	> 64 µg/mL	≦0.03	> 64 µg/mL	–	> 64 µg/mL	32 µg/mL	> 64 µg/mL	–	> 64 µg/mL	> 64 µg/mL	> 64 µg/mL	> 64 µg/mL	64 µg/mL	> 64 µg/mL	8	>64	0.125	1	>64	MIC of compound in the presence of fluconazole (+) [6]: 8 µg/mL; MIC of compound in the presence of fluconazole (+) [8]: 8 µg/mL; MIC of compound in the presence of fluconazole (+) [9]: 4 µg/mL; FEPI MIC with fluconazole, 60% Inh [12]: 16; FEPI MIC with fluconazole, 80% Inh [12]: >64
C/C1=C\C[C@@H]2C[C@@H](C[C@]3(CC[C@H](C)[C@@H](C)O3)O2)OC(=O)[C@@H]2C=C(COC(=O)Cc3ccccc3)[C@@H](O)[C@H]3OC/C(=C\C=C\[C@H](C)C1)[C@]32O [Compound 25, 4a-O-phenylacetyl milbemycin α1]	> 64 µg/mL	> 64 µg/mL	≦0.03	> 64 µg/mL	0.06 µg/mL	> 64 µg/mL	2 µg/mL	> 64 µg/mL	4 µg/mL	> 64 µg/mL	> 64 µg/mL	> 64 µg/mL	> 64 µg/mL	> 64 µg/mL	> 64 µg/mL	0.5	>64	≦0.063	0.25	>64	MIC of compound in the presence of fluconazole (+) [9, 15]: ≦0.03; FEPI MIC with fluconazole, 60% Inh [12, 16]: 1; FEPI MIC with fluconazole, 80% Inh [12, 17]: 2
CCCCC(C)C(=O)OC1C(C)C(CC)OC2(CC3CC(CC=C(C)CC(C)C=CC=C4COC5C(O)C(C)=CC(C(=O)O3)C45O)O2)C1O (stereo not drawn) [Compound 10, Milbemycin α7]	> 64 µg/mL	> 64 µg/mL	≦0.03	> 64 µg/mL	> 64 µg/mL	> 64 µg/mL	1 µg/mL	> 64 µg/mL	2 µg/mL	> 64 µg/mL	> 64 µg/mL	> 64 µg/mL	> 64 µg/mL	> 64 µg/mL	> 64 µg/mL	1	8	0.25	0.25	>64	MIC of compound in the presence of fluconazole (+) [9, 15]: ≦0.03; FEPI MIC with fluconazole, 60% Inh [12, 16]: 0.25; FEPI MIC with fluconazole, 80% Inh [12, 17]: 4
